How the values were obtained:
mTOR kinase = target: T1, mTOR kinase (Homo sapiens, UniProt P42345); experiment: mTOR kinase TR-FRET assay; assay type: biochemical; conditions: read-out: mTO R
T1 construct: purchased Millipore, USA
How it was run: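 Compounds preincubated 60 min with mTOR (5 ng) in HEPES pH 7.5, EGTA, MnCl2; ULight-p70 S6K Thr389 peptide (50 nM) and ATP (20 μM) then added, 60 min at room temperature. EDTA-stopped, Eu-anti-phospho antibody detection by TR-FRET (665/615 nm); IC50 from variable-slope sigmoidal fit.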

PC3 cells = experiment: XTT assay for cell viability, PC3 cells; assay type: cell-based, human; conditions: Homo sapiens, PC-3, cell viability
Description: Using a commercial kit from Sigma Aldrich (Catalog #X34251) and following its protocol, PC3 cells in the log phase of growth were employed and seeded at an optimal density of 1000 cell/well on to 96 well plates and incubated for 24 h followed by the addition of compounds of formula (I) in serial dilutions. Compound dilutions were made in DMSO. The cells were incubated with the compounds of formula (I) for 96 h and XTT tetrazolium dye (Sigma, USA) was subsequently added and incubated at 37° C. After the color formation, absorbance was measured at 465 nm in a Spectramax® Gemini spectrophotometer. EC50 values were calculated using a sigmoidal dose response curve fit in GraphPad Prism® v5 software. The tested compounds of formula (I) which caused inhibition of PC3 cell proliferation as determined by this assay protocol are shown in Table 2.

[1] = target: T2, PI3Kα (wild-type), P110/P85α (Homo sapiens, UniProt P42336); experiment: PI3 Kinase TR-FRET assay, PI3Kα (wild-type); assay type: biochemical
T2 construct: made in house; host or cells: SF9 insect cells
How it was run: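 Sf9-expressed His-purified P110/P85α (5 ng) preincubated 60 min RT with compound and PIP2 in buffer with 40 mM MgCl2, 5 mM DTT; reaction started with ATP (PIP2 and ATP both 10 μM), 30 min RT. PIP3 detected by TR-FRET displacement, 665/615 nm ratio; IC50 from dose-response curves.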

T2 sequence (P42336 whole entry): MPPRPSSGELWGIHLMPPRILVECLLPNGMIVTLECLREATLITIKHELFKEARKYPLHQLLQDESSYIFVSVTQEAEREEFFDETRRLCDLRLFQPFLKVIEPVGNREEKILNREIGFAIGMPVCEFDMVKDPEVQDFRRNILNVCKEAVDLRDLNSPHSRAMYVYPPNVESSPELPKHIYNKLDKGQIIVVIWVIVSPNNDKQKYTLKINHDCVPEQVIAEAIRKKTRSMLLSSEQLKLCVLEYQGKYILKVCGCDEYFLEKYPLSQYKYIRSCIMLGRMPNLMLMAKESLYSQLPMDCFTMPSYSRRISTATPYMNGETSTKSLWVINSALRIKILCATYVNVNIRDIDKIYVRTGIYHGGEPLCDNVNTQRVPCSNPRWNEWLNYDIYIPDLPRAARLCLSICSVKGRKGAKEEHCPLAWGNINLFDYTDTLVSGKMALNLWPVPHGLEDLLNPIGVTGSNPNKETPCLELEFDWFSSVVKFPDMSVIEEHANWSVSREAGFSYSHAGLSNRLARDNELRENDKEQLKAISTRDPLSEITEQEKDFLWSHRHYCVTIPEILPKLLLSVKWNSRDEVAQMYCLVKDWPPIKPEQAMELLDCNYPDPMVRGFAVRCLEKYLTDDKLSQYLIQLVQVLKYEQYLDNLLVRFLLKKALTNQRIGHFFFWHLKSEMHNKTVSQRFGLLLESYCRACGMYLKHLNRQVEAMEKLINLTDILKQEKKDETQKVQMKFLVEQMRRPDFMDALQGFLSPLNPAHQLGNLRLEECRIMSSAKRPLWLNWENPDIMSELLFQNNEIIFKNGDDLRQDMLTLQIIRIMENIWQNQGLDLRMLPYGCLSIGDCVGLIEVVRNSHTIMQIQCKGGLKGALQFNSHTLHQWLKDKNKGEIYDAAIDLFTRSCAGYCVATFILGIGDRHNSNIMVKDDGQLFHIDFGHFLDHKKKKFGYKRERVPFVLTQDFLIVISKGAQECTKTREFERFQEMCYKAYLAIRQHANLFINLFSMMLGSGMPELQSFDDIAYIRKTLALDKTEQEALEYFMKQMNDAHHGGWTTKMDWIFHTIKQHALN
T2 sequence (P27986 whole entry partner): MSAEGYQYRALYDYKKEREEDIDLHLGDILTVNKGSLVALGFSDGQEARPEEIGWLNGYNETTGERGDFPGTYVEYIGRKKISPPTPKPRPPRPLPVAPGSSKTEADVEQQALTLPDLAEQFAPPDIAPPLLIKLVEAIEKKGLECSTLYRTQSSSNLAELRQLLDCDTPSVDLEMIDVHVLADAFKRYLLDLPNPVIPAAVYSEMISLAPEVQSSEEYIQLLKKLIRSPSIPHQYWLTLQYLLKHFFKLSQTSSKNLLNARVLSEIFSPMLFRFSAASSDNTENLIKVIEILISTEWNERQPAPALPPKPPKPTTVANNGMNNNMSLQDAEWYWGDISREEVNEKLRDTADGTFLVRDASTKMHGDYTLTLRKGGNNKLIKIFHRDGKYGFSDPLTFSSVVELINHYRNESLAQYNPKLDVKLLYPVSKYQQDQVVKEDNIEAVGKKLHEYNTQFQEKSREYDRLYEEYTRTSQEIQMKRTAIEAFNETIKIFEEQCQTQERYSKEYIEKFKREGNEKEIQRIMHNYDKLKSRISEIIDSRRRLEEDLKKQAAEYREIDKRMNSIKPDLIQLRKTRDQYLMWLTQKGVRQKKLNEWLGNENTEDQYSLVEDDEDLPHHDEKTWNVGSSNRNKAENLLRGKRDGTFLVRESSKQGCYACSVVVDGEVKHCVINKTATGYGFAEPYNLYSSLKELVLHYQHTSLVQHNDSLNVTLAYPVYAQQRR

For `Cc1ccc(-c2ccc3c(N4CCOCC4)nc(-c4ccc(NC(=O)Nc5ccc(C(=O)N6CCC(N(C)C)C6)cc5)cc4)nc3c2)o1` (stereo in doubt) [Example 195, (S)-1-(4-(3-(dimethylamino)pyrrolidine-1-carbonyl)phenyl)-3-(4-(7-(5-methylfuran-2-yl)-4-morpholino-quinazolin-2-yl)phenyl)urea], the IC50 (mTOR kinase) was < 50 nM, the IC50 (PC3 cells) was < 100 nM and the IC50 [1] was 50 to 200 nM.

For `NC1CCN(C(=O)c2ccc(NC(=O)Nc3ccc(-c4nc(N5CCOCC5)c5ccc(-c6ccco6)cc5n4)cc3)cc2)C1` (stereo in doubt) [Example 234, (S)-1-(4-(3-aminopyrrolidine-1-carbonyl)phenyl)-3-(4-(7-(furan-2-yl)-4-morpholino-quinazolin-2-yl)phenyl)urea], the IC50 (mTOR kinase) was < 50 nM, the IC50 (PC3 cells) was 201 to 10000 nM and the IC50 [1] was < 50 nM.

For `CN1CCN(C(=O)c2ccc(NC(=O)Nc3ccc(-c4nc(N5CCOCC5)c5cc(F)c(-c6cccnc6)cc5n4)cc3)cc2)CC1` [Example 4, 1-[4(6-Fluoro-4-morpholin-4-yl-7-pyridin-3-yl-quinazolin-2-yl)-phenyl]-3-[4-(4-methyl-piperazine-1-carbonyl)-phenyl]-urea], the IC50 (mTOR kinase) was < 50 nM, the IC50 (PC3 cells) was < 100 nM and the IC50 [1] was < 50 nM.

With `CN(C)C(=O)c1ccc(NC(=O)Nc2ccc(-c3nc(N4CCOCC4)c4cccc(-c5cccc(O)c5)c4n3)cc2)cc1` [Example 5, 4-(3-{4-[8-(3-Hydroxy-phenyl)-4-morpholin-4-yl-quinazolin-2-yl]-phenyl}-ureido)-N,N-dimethyl-benzamide] the IC50 (mTOR kinase) was < 50 nM, the IC50 (PC3 cells) was < 100 nM and the IC50 [1] was 50 to 200 nM.

`CN(C)C(=O)c1ccc(NC(=O)Nc2ccc(-c3nc(N4CCOCC4)c4cccc(-c5ccc(F)nc5)c4n3)cc2)cc1` [Example 6, 4-(3-{4-[8-(6-Fluoro-pyridin-3-yl)-4-morpholin-4-yl-quinazolin-2-yl]-phenyl}-ureido)-N,N-dimethyl-benzamide] was tested, and the IC50 (mTOR kinase) was < 50 nM, the IC50 (PC3 cells) was 100 to 500 nM and the IC50 [1] was 50 to 200 nM.

`CN(C)C(=O)c1ccc(NC(=O)Nc2ccc(-c3nc(N4CCOCC4)c4ncc(-c5cncnc5)cc4n3)cc2)cc1` [Example 9, N,N-Dimethyl-4-{3-[4-(4-morpholin-4-yl-7-pyrimidin-5-yl-pyrido[3,2-d]-pyrimidin-2-yl)-phenyl]-ureido}-benzamide] was tested, and the IC50 (mTOR kinase) was < 50 nM, the IC50 (PC3 cells) was < 100 nM and the IC50 [1] was < 50 nM.

`CC(=O)Nc1ccc(NC(=O)Nc2ccc(-c3nc(N4CCOCC4)c4ccc(-c5ccc(C)o5)cc4n3)cc2)cc1` [Example 17, N-(4-(3-(4-(7-(5-methylfuran-2-yl)-4-morpholino-quinazolin-2-yl)phenyl)ureido)phenyl)acetamide] was tested, and the IC50 (mTOR kinase) was 50 to 200 nM, the IC50 (PC3 cells) was 100 to 500 nM and the IC50 [1] was 50 to 200 nM.

In the case of `CN(C)C(=O)c1ccc(NC(=O)Nc2ccc(-c3nc(N4CCOCC4)c4ccc(-c5cccnc5F)cc4n3)cc2)cc1` [Example 21, 4-(3-{4-[7-(2-fluoro-pyridin-3-yl)-4-morpholin-4-yl-quinazolin-2-yl]-phenyl}-ureido)-N,N-dimethyl-benzamide], the IC50 (mTOR kinase) is reported as < 50 nM, the IC50 (PC3 cells) is reported as 100 to 500 nM and the IC50 [1] is reported as 50 to 200 nM.

In the case of `CN(C)C(=O)c1ccc(NC(=O)Nc2ccc(-c3nc(N4CCOCC4)c4ccc(-c5cccc(NS(C)(=O)=O)c5)cc4n3)cc2)cc1` [Example 23, 4-(3-{4-[7-(3-methanesulfonylamino-phenyl)-4-morpholin-4-yl-quinazolin-2-yl]-phenyl}-ureido)-N,N-dimethyl-benzamide], the IC50 (mTOR kinase) is reported as 50 to 200 nM, the IC50 (PC3 cells) is reported as 501 to 5000 nM and the IC50 [1] is reported as < 50 nM.

Work on `CS(=O)(=O)c1cccc(-c2ccc3c(N4CCOCC4)nc(-c4ccc(NC(=O)Nc5ccc(C(N)=O)cc5)cc4)nc3c2)c1` [Example 25, 4-(3-{4-[7-(3-methanesulfonyl-phenyl)-4-morpholin-4-yl-quinazolin-2-yl]-phenyl}-ureido)-benzamide] yielded an IC50 (mTOR kinase) of 50 to 200 nM, an IC50 (PC3 cells) of 501 to 5000 nM and an IC50 [1] of 50 to 200 nM.

In the case of `CN1CCN(C(=O)c2ccc(NC(=O)Nc3ccc(-c4nc(N5CCOCC5)c5ccc(-c6cccnc6F)cc5n4)cc3)cc2)CC1` [Example 26, 1-{4-[7-(2-fluoro-pyridin-3-yl)-4-morpholin-4-yl-quinazolin-2-yl]-phenyl}-3-[4-(4-methyl-piperazine-1-carbonyl)-phenyl]-urea], the IC50 (mTOR kinase) is reported as < 50 nM, the IC50 (PC3 cells) is reported as < 100 nM and the IC50 [1] is reported as < 50 nM.

In the case of `CN1CCN(C(=O)c2ccc(NC(=O)Nc3ccc(-c4nc(N5CCOCC5)c5ccc(-c6cnn(C)c6)cc5n4)cc3)cc2)CC1` [Example 27, 1-[4-(4-methyl-piperazine-1-carbonyl)-phenyl]-3-{4-[7-(1-methyl-1H-pyrazol-4-yl)-4-morpholin-4-yl-quinazolin-2-yl]-phenyl}-urea], the IC50 (mTOR kinase) is reported as < 50 nM, the IC50 (PC3 cells) is reported as < 100 nM and the IC50 [1] is reported as 50 to 200 nM.

`CN(C)C(=O)c1ccc(NC(=O)Nc2ccc(-c3nc(N4CCOCC4)c4ncc(-c5cnn(C)c5)cc4n3)cc2)cc1F` [Example 273, 2-fluoro-N,N-dimethyl-4-(3-(4-(7-(1-methyl-1H-pyrazol-4-yl)-4-morpholino-pyrido[3,2-d]pyrimidin-2-yl)phenyl)ureido)-benzamide] was tested, and the IC50 (mTOR kinase) was < 50 nM and the IC50 [1] was < 50 nM.

Molecule `CN(C)C(=O)c1ccc(NC(=O)Nc2ccc(-c3nc(N4CCOCC4)c4ccc(-c5ccc(C(C)(C)O)o5)cc4n3)c(F)c2)cc1` [Example 276, 4-(3-(3-fluoro-4-(7-(5-(2-hydroxypropan-2-yl)furan-2-yl)-4-morpholino-quinazolin-2-yl)phenyl)ureido)-N,N-dimethyl-benzamide] has an IC50 (mTOR kinase) of 50 to 200 nM and an IC50 [1] of 50 to 200 nM.

In the case of `CN(C)C(=O)c1ccc(NC(=O)Nc2ccc(-c3nc(N4CCOCC4)c4ccc(-c5cnc(N(C)C)nc5)cc4n3)c(F)c2)cc1` [Example 277, 4-(3-(4-(7-(2-(dimethylamino)pyrimidin-5-yl)-4-morpholino-quinazolin-2-yl)-3-fluorophenyl)ureido)-N,N-dimethyl-benzamide], the IC50 (mTOR kinase) is reported as < 50 nM and the IC50 [1] is reported as < 50 nM.

`CN(C)C(=O)c1ccc(NC(=O)Nc2ccc(-c3nc(N4CCOCC4)c4ccc(-c5ccc(CO)o5)cc4n3)cc2)cc1F` [Example 278, 2-fluoro-4-(3-(4-(7-(5-(hydroxymethyl)furan-2-yl)-4-morpholino-quinazolin-2-yl)phenyl)ureido)-N,N-dimethyl-benzamide] was tested, and the IC50 (mTOR kinase) was < 50 nM and the IC50 [1] was < 50 nM.

In the case of `CN(C)C(=O)c1ccc(NC(=O)Nc2cc(F)c(-c3nc(N4CCOCC4)c4ccc(-c5cncnc5)cc4n3)cc2F)cc1` [Example 279, 4-(3-(2,5-difluoro-4-(4-morpholino-7-(pyrimidin-5-yl)quinazolin-2-yl)phenyl)ureido)-N,N-dimethyl-benzamide], the IC50 (mTOR kinase) is reported as 50 to 200 nM and the IC50 [1] is reported as 50 to 200 nM.

`Cc1ccc(-c2ccc3c(N4CCOCC4)nc(-c4ccc(NC(=O)Nc5ccc(C(=O)N(C)C)cc5)c(F)c4F)nc3c2)o1` [Example 281, 4-(3-(2,3-difluoro-4-(7-(5-methylfuran-2-yl)-4-morpholino-quinazolin-2-yl)phenyl)ureido)-N,N-dimethyl-benzamide] gave an IC50 (mTOR kinase) of 201 to 10000 nM and an IC50 [1] of 201 to 10000 nM.

`CN(C)C(=O)c1ccc(NC(=O)Nc2ccc(-c3nc(N4CCOCC4)c4ccc(CN5CCC(O)CC5)cc4n3)cc2)cc1` [Example 284, 4-(3-(4-(7-((4-hydroxypiperidin-1-yl)methyl)-4-morpholino-quinazolin-2-yl)phenyl)ureido)-N,N-dimethyl-benzamide] was tested, and the IC50 (mTOR kinase) was 50 to 200 nM and the IC50 [1] was 201 to 10000 nM.

Work on `CN(C)C(=O)c1ccc(NC(=O)Nc2ccc(-c3nc(N4CCOCC4)c4ccc(C(=O)N5CCC(N(C)C)CC5)cc4n3)cc2)cc1` [Example 287, 4-(3-(4-(7-(4-(dimethylamino)piperidine-1-carbonyl)-4-morpholino-quinazolin-2-yl)phenyl)ureido)-N,N-dimethyl-benzamide] yielded an IC50 (mTOR kinase) of 201 to 10000 nM and an IC50 [1] of 201 to 10000 nM.

With `CN(C)[C@@H]1CCN(C(=O)c2ccc(NC(=O)Nc3ccc(-c4nc(N5CCOCC5)c5ccc(C(C)(C)O)cc5n4)cc3)cc2)C1` [Example 288, (R)-1-(4-(3-(dimethylamino)pyrrolidine-1-carbonyl)phenyl)-3-(4-(7-(2-hydroxypropan-2-yl)-4-morpholino-quinazolin-2-yl)phenyl)urea] the IC50 (mTOR kinase) was < 50 nM and the IC50 [1] was 50 to 200 nM.

For `CN(C)C(=O)c1ccc(NC(=O)Nc2ccc(-c3nc(N4CCOCC4)c4ccc(C(C)(C)O)cc4n3)cc2F)cc1` [Example 290, 4-(3-(2-fluoro-4-(7-(2-hydroxypropan-2-yl)-4-morpholino-quinazolin-2-yl)phenyl)ureido)-N,N-dimethyl-benzamide], the IC50 (mTOR kinase) was < 50 nM and the IC50 [1] was 50 to 200 nM.

`CC(=O)Nc1ccc(NC(=O)Nc2ccc(-c3nc(N4CCOCC4)c4ncc(-c5cccnc5F)cc4n3)cc2)cc1` [Example 293, N-(4-(3-(4-(7-(2-fluoropyridin-3-yl)-4-morpholinopyrido[3,2-d]pyrimidin-2-yl)phenyl)ureido)phenyl) acetamide] was tested, and the IC50 (mTOR kinase) was < 50 nM and the IC50 [1] was < 50 nM.

In the case of `CC(=O)Nc1ccc(NC(=O)Nc2ccc(-c3nc(N4CCOCC4)c4ncc(-c5cnn(C)c5)cc4n3)cc2)cc1` [Example 294, N-(4-(3-(4-(7-(1-methyl-1H-pyrazol-4-yl)-4-morpholinopyrido[3,2-d]pyrimidin-2-yl)phenyl)ureido)phenyl) acetamide], the IC50 (mTOR kinase) is reported as < 50 nM and the IC50 [1] is reported as < 50 nM.

From US9115092B2, “Substituted quinazoline and pyrido-pyrimidine derivatives” (Asana Biosciences, LLC, priority 2010, dated 2015)
